The source made the active and inactive calls. The rule behind the calls is not given here.

Experiment [1] has as its system Amaranthus hypochondriacus. In words: Phytotoxicity against Amaranthus hypochondriacus seedlings assessed as inhibition of radical growth at 28 degC by petri dish assay. Format: functional, organism-based.
Experiment [2] is described as follows: Inhibition of bovine brain calmodulin-dependent cyclic nucleotide phosphodiesterase after 30 min. The arrangement: species or system Bos taurus.
Experiment [3] has as its target Calmodulin (Bos taurus) (UniProt P62157). In words: Binding affinity to bovine brain calmodulin assessed as decrease in electrophoretic mobility at 0.033 ug/ml for 1.5 hrs by SDS-PAGE in presence of Ca2+ ions.

In the case of `O=C(O)COc1ccc(Cl)cc1Cl` [2,4-DICHLOROPHENOXYACETIC ACID], the IC50 – broadly, the point on the concentration scale where inhibition reaches its midpoint – in experiment [1] came out at 200 µM.

`CN(C)CCCN1c2ccccc2Sc2ccc(Cl)cc21` [CHLORPROMAZINE] came in with an IC50 in experiment [2] of 9.8 µM.

With `CCC[C@@H]1C[C@@H](O)/C=C/CCCC(=O)O1` [HERBARUMIN III], in experiment [1], the IC50 was determined as 20 µM. Moreover, in experiment [3], the result was Active.

As for `CCC[C@H]1OC(=O)[C@H](O)CC/C=C/[C@H](O)[C@@H]1O` [HERBARUMIN II], the outcome in experiment [3] was Active. This compound came in with an IC50 in experiment [2] of 6.6 µM.

For the compound `CCC[C@H]1OC(=O)CCC/C=C/[C@H](O)[C@@H]1O` [HERBARUMIN I], the outcome in experiment [3] was Active. Besides, inhibition in experiment [2] was half-maximal at 14.2 µM (IC50).

Source of the values: ChEMBL document CHEMBL1159359, “A new phytotoxic nonenolide from Phoma herbarum” (J Nat Prod, 2003).
